# Tests used:
# deer sperm = experiment: Post thaw motility of bulk sorted deer sperm (Example 3); type: cell-based; conditions: 0 HR; RED TALP with 16 μL, Y6 with 14 μL Hoechst 33342
# Method: (§1) Each of deer and elk were collected in the Tris-egg yolk catch fluid described as a catch media in Example 1, and shipped for sorting.
# (§2) A portion of each of the deer and the elk were stained by the red food dye No. 40 treatment 40% with 16 μL Hoechst 33342 and the yellow food dye No. 6 treatment with 14 μL Hoechst 33342 as described in Example 1.
# (§3) Samples were each bulk sorted with the same machine and parameters described in Example 1. Both sorted X and sorted Y sperm were collected into a single catch. The sorted samples were then frozen like those described in Example 1.
# (§4) Frozen thawed samples were then tested for post thaw motilities and post thaw DNA fragmentation. Post thaw motilities were slightly higher in Elk sorted with a yellow quencher, while a more significant difference existed in progressive motility. In Table 10, post thaw DNA fragmentation in Elk can be seen at about double after 48 hours when red food dye No. 40 is compared to yellow food dye No. 6 as a dead quencher.
# [1] = solvent water; shorter-wavelength local maximum; cited from earlier work
# elk sperm [2] = experiment: Post thaw motility of bulk sorted elk sperm (Example 3); type: cell-based; conditions: 0 HR; RED TALP with 16 μL, Y6 with 14 μL Hoechst 33342
# Method: as §1, §2, §3, §4
# [3] = system: X- and Y-chromosome bearing bovine sperm stained with Hoechst 33342; experiment: Split quality: height of peak divided by height of valley (PV), flow cytometry of stained bovine sperm; type: cell-based; conditions: for Height of Peak/Height of Valley: Ex 5; for Height of Peak Divided by Height of Valley: Ex 7, Yellow 6 62 μM, Phenol Red 0 μM
# [4] = system: membrane compromised bovine sperm stained with Hoechst 33342; experiment: Dead quenching: dead gate intensity divided by live gate intensity, flow cytometry of stained bovine sperm; type: cell-based; conditions: for Dead Intensity (dead gate intensity divided by live gate intensity): Ex 5
# Outline: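 Bovine sperm stained with Hoechst 33342 (48–64 μM effective) in pH 7.4 TALP at 34° C for 60 min, then mixed 1:1 with pH 5.60 TALP containing quenching dye and held ~30 min at room temperature. Read on a MoFlo SX sorter; value is dead gate intensity divided by live gate intensity as a percentage, lower meaning more quenching.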
# elk sperm [5] = experiment: Post thaw DNA fragmentation of elk sperm (Example 3); type: cell-based; conditions: unit assumed
# Method: as §1, §2, §3, §4
# [6] = dye 62.5 μM, Hoechst 12 μL/2 mL
# [7] = dye 62.5 μM, Hoechst 14 μL/2 mL
# [8] = dye 62.5 μM, Hoechst 16 μL/2 mL
# [9] = Ex 6, dye 62.5 μM, resulting pH 6.70, Hoechst 48 μM
smiles,measurement,setting,value
"O=S(=O)([O-])c1ccc(N=Nc2c(O)ccc3cc(S(=O)(=O)[O-])ccc23)cc1.[Na+].[Na+] [Yellow 6, Disodium 6-hydroxy-5-[(4-sulfophenyl)azo]-2-naphthalenesulfononate]","Post Thaw Motility Deer, Motile",deer sperm,67.5
same,"Post Thaw Motility Deer, Progressive",deer sperm,53.2
same,Expected Absorption Maxima,[1],480 nm
same,"Post Thaw Motility Elk, Motile",elk sperm [2],55.5
same,"Post Thaw Motility Elk, Progressive",elk sperm [2],38.0
same,Height of Peak/Height of Valley,"[3]; dye 25 μM, Average of 12 and 14 μL series",2.06
same,Height of Peak/Height of Valley,"[3]; dye 25 μM, Hoechst 12 μL/2 mL",2.05
same,Height of Peak/Height of Valley,"[3]; dye 25 μM, Hoechst 14 μL/2 mL",2.07
same,Height of Peak/Height of Valley,"[3]; dye 25 μM, Hoechst 16 μL/2 mL",1.13
same,Height of Peak/Height of Valley,"[3]; dye 62.5 μM, Average of 12 and 14 μL series",1.66
same,Height of Peak/Height of Valley,[3]; [6],1.70
same,Height of Peak/Height of Valley,[3]; [7],1.62
same,Height of Peak/Height of Valley,[3]; [8],1.00
same,Height of Peak/Height of Valley,"[3]; dye 125 μM, Average of 12 and 14 μL series",1.77
same,Height of Peak/Height of Valley,"[3]; dye 125 μM, Hoechst 12 μL/2 mL",1.73
same,Height of Peak/Height of Valley,"[3]; dye 125 μM, Hoechst 14 μL/2 mL",1.80
same,Height of Peak/Height of Valley,"[3]; dye 125 μM, Hoechst 16 μL/2 mL",1.26
same,PV,[3]; [9],1.00
same,Height of Peak Divided by Height of Valley,[3]; cells 100 million per mL,1.26
same,Height of Peak Divided by Height of Valley,[3]; cells 150 million per mL,1.30
same,Height of Peak Divided by Height of Valley,[3]; cells 250 million per mL,1.25
same,Height of Peak Divided by Height of Valley,[3]; cells 300 million per mL,1.23
same,PV,"[3]; Ex 8, Bull 1, Hoechst 44 μM, Y6 50 μM alone",1.20
same,PV,"[3]; Ex 8, Bull 1, Hoechst 60 μM, Y6 50 μM alone",1.39
same,PV,"[3]; Ex 8, Bull 2, Hoechst 28 μM, Y6 50 μM alone",1.64
same,PV,"[3]; Ex 8, Bull 2, Hoechst 44 μM, Y6 50 μM alone",1.35
same,PV,"[3]; Ex 8, Bull 2, Hoechst 60 μM, Y6 50 μM alone",1.35
same,PV,"[3]; Ex 8, Bull 2, Hoechst 60 μM, Y6 375 μM alone",1.72
same,PV,"[3]; Ex 9, Bull 3, Hoechst 60 μM, Y6 50 μM, R3 0 μM, first Y6 series",1.26
same,PV,"[3]; Ex 9, Bull 3, Hoechst 60 μM, Y6 50 μM, R3 0 μM, second Y6 series",1.32
same,Dead Intensity (dead gate intensity divided by live gate intensity),"[4]; dye 25 μM, Average of Hoechst levels",71%
same,Dead Intensity (dead gate intensity divided by live gate intensity),"[4]; dye 25 μM, Hoechst 12 μL/2 mL",68%
same,Dead Intensity (dead gate intensity divided by live gate intensity),"[4]; dye 25 μM, Hoechst 14 μL/2 mL",74%
same,Dead Intensity (dead gate intensity divided by live gate intensity),"[4]; dye 25 μM, Hoechst 16 μL/2 mL",70%
same,Dead Intensity (dead gate intensity divided by live gate intensity),"[4]; dye 62.5 μM, Average of Hoechst levels",51%
same,Dead Intensity (dead gate intensity divided by live gate intensity),[4]; [6],50%
same,Dead Intensity (dead gate intensity divided by live gate intensity),[4]; [7],52%
same,Dead Intensity (dead gate intensity divided by live gate intensity),[4]; [8],52%
same,Dead Intensity (dead gate intensity divided by live gate intensity),"[4]; dye 125 μM, Average of Hoechst levels",39%
same,Dead Intensity (dead gate intensity divided by live gate intensity),"[4]; dye 125 μM, Hoechst 12 μL/2 mL",37%
same,Dead Intensity (dead gate intensity divided by live gate intensity),"[4]; dye 125 μM, Hoechst 14 μL/2 mL",40%
same,Dead Intensity (dead gate intensity divided by live gate intensity),"[4]; dye 125 μM, Hoechst 16 μL/2 mL",40%
same,Intensity (dead gate),[4]; [9],50%
same,quenching of the dead population compared to red food dye No. 40 (FIG. 3),"[4]; three bulls, equal amounts of Hoechst 33342 and of dye",superior quenching
same,"Post Thaw DNA fragmentation Elk, Post Sort",elk sperm [5]; 0 HR,0%
same,"Post Thaw DNA fragmentation Elk, Pre-sort",elk sperm [5]; 0 HR,2.3%
same,"Post Thaw DNA fragmentation Elk, Post Sort",elk sperm [5]; 24 HR,0%
same,"Post Thaw DNA fragmentation Elk, Pre-sort",elk sperm [5]; 24 HR,3.3%
same,"Post Thaw DNA fragmentation Elk, Post Sort",elk sperm [5]; 48 HR,0.3%
same,"Post Thaw DNA fragmentation Elk, Pre-sort",elk sperm [5]; 48 HR,3.7%

# — patent US9140688B2, “Sperm staining and sorting methods” (INGURAN, LLC, priority 2011, dated 2015)
